Measurements as given in the supplement of paper PMC10307832.

compound: Cc1ccc(C(=O)Nc2ccc(CN3CCN(C)CC3)c(C(F)(F)F)c2)cc1C#Cc1cnc2cccnn12 [Ponatinib] + O=C(c1cc(Cc2n[nH]c(=O)c3ccccc23)ccc1F)N1CCN(C(=O)C2CC2)CC1 [Olaparib] (partner 8 µM); experiment: relative viability (nuclei count vs DMSO), 5 days (fraction); higher = more cells survive; settings: first compound 0.002 µM
In short: (§1)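 Cells from lung cancer lines were seeded into 1536-well plates and, one day later, dosed by pin tool. Treatments were either a single drug or a fixed dose of an anchor drug with five library-drug doses (not always all listed) in √10 steps. After 5 days, nuclei were stained in a one-step fixation (final 0.05% Triton X-100, 1% formaldehyde, 1 ug/ml Hoechst) and counted on 4× images, and relative viability is the treated-to-vehicle nuclei ratio, as the median of duplicate plates.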

Compared with NCI-H1915, HCC-827 is higher in relative viability: 0.254 for the first, 0.719 for the second.

Going from LXF-289 to NCI-H23, the relative viability falls from 0.97 to 0.327.

First: NCI-H650
Second: NCI-H1651
The relative viability of the first is higher: 0.344 for the first, 0.197 for the second.

Compared with EPLC-272H, NCI-H1792 is lower in relative viability: 0.777 for the first, 0.44 for the second.

Going from NCI-H1355 to NCI-H322M, the relative viability rises from 0.668 to 0.787.

Going from NCI-H1437 to NCI-H1755, the relative viability rises from 0.598 to 0.806.

Going from HCC-15 to NCI-H1944, the relative viability falls from 0.673 to 0.378.

Going from EKVX to LC-2-ad, the relative viability falls from 0.956 to 0.764.

First: NCI-H2170
Second: NCI-H1975
The relative viability of the first is lower: 0.583 for the first, 0.756 for the second.

Compared with ABC-1, RERF-LC-KJ is lower in relative viability: 0.893 for the first, 0.874 for the second.

same assay, conditions: first compound 0.006325 µM

Compared with NCI-H1915, HCC-827 is higher in relative viability: 0.275 for the first, 0.644 for the second.

Going from LXF-289 to NCI-H23, the relative viability falls from 1.05 to 0.343.

Going from NCI-H650 to NCI-H1651, the relative viability falls from 0.417 to 0.195.

First: EPLC-272H
Second: NCI-H1792
The relative viability of the first is higher: 0.9 for the first, 0.587 for the second.

Going from NCI-H1355 to NCI-H322M, the relative viability rises from 0.709 to 0.729.

First: NCI-H1437
Second: NCI-H1755
The relative viability of the first is lower: 0.595 for the first, 0.856 for the second.

First: HCC-15
Second: NCI-H1944
The relative viability of the first is higher: 0.721 for the first, 0.455 for the second.

First: PC-3 [JPC-3]
Second: EKVX
The relative viability of the first is higher: 1.15 for the first, 0.897 for the second.

Going from LC-2-ad to NCI-H2170, the relative viability falls from 0.762 to 0.599.

First: NCI-H1975
Second: ABC-1
The relative viability of the first is lower: 0.77 for the first, 0.776 for the second.

Work on RERF-LC-KJ yielded a relative viability of 0.879.

same assay, conditions: first compound 0.06325 µM

Going from NCI-H1915 to HCC-827, the relative viability rises from 0.278 to 0.709.

First: LXF-289
Second: NCI-H23
The relative viability of the first is higher: 1.06 for the first, 0.466 for the second.

Going from NCI-H650 to NCI-H1651, the relative viability falls from 0.452 to 0.18.

Going from EPLC-272H to NCI-H1792, the relative viability falls from 0.778 to 0.489.

Going from NCI-H1355 to NCI-H322M, the relative viability falls from 0.817 to 0.739.

Compared with NCI-H1437, NCI-H1755 is higher in relative viability: 0.654 for the first, 0.882 for the second.

First: HCC-15
Second: NCI-H1944
The relative viability of the first is higher: 0.767 for the first, 0.427 for the second.

Compared with PC-3 [JPC-3], EKVX is lower in relative viability: 1.3 for the first, 0.971 for the second.

Going from LC-2-ad to NCI-H2170, the relative viability falls from 0.781 to 0.631.

Going from NCI-H1975 to ABC-1, the relative viability falls from 0.787 to 0.776.

Work on RERF-LC-KJ yielded a relative viability of 0.988.

same assay, conditions: first compound 0.2 µM

Compared with NCI-H1915, HCC-827 is higher in relative viability: 0.234 for the first, 0.687 for the second.

Compared with LXF-289, NCI-H23 is lower in relative viability: 1.06 for the first, 0.328 for the second.

First: NCI-H650
Second: NCI-H1651
The relative viability of the first is higher: 0.401 for the first, 0.177 for the second.

Compared with EPLC-272H, NCI-H1792 is lower in relative viability: 0.624 for the first, 0.313 for the second.

Compared with NCI-H1355, NCI-H322M is lower in relative viability: 0.739 for the first, 0.649 for the second.

Compared with NCI-H1437, NCI-H1755 is higher in relative viability: 0.623 for the first, 0.782 for the second.

Going from HCC-15 to NCI-H1944, the relative viability falls from 0.738 to 0.441.

Going from PC-3 [JPC-3] to EKVX, the relative viability falls from 1.09 to 0.767.

Compared with LC-2-ad, NCI-H2170 is lower in relative viability: 0.713 for the first, 0.639 for the second.

Compared with NCI-H1975, ABC-1 is lower in relative viability: 0.732 for the first, 0.693 for the second.

In the case of RERF-LC-KJ, the relative viability is reported as 0.793.

compound: Cc1ccc(Nc2nccc(N(C)c3ccc4c(C)n(C)nc4c3)n2)cc1S(N)(=O)=O [Pazopanib] + CS(=O)(=O)N1CCN(Cc2cc3nc(-c4cccc5[nH]ncc45)nc(N4CCOCC4)c3s2)CC1 [Pictilisib] (partner 1 µM); experiment: as above; settings: first compound 0.01 µM
In short: as §1

First: NCI-H1915
Second: HCC-827
The relative viability of the first is higher: 0.905 for the first, 0.894 for the second.

Compared with LXF-289, NCI-H23 is lower in relative viability: 0.701 for the first, 0.415 for the second.

First: NCI-H650
Second: NCI-H1651
The relative viability of the first is higher: 0.789 for the first, 0.456 for the second.

Going from EPLC-272H to NCI-H322M, the relative viability rises from 0.264 to 0.498.

First: NCI-H1437
Second: NCI-H1755
The relative viability of the first is lower: 0.343 for the first, 0.368 for the second.

First: HCC-15
Second: NCI-H1944
The relative viability of the first is higher: 0.703 for the first, 0.303 for the second.

First: PC-3 [JPC-3]
Second: EKVX
The relative viability of the first is higher: 0.745 for the first, 0.411 for the second.
